According to patent US20040029928A1, “Novel propenohydroxamic acid derivatives” (priority 2000, published 2004):

How the values were obtained:
MMP-1 = biological target: T1, MMP-1 (Homo sapiens, UniProt P03956); assay: Measurement of MMP-1 inhibitory activity; type: biochemical; conditions: MMP-1 (Cosmo Bio), fluorogenic substrate
T1 construct: purchased Cosmo Bio Co
T1 sequence (P03956 100-469): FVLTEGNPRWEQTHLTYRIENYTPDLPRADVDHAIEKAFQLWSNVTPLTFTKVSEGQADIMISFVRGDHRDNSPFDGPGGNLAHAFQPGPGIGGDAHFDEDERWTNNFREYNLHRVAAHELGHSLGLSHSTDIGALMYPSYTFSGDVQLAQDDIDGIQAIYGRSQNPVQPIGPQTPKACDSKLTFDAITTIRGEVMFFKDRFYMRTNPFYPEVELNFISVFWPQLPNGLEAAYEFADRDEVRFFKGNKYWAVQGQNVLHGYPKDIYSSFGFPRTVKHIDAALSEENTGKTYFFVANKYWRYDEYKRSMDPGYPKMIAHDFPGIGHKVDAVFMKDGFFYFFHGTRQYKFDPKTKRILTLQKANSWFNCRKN
Procedure: Test 2 (Measurement of MMP-1 Inhibitory Activity)
MMP-1 inhibitory activity (IC50 value) was measured in accordance with the above-described measuring method of TACE inhibitory activity by using MMP-1 (product of Cosmo Bio Co.) and, as a substrate, 7-methoxycoumarin-4-yl-acetyl-PLGL-[N^3-(2,4-dinitrophenyl)2,3-diaminopropionyl]-AR—NH2 (product of Peptide Institute Inc.). The fluorescence intensity was measured using POLAR STAR (Ex: 340 nm, Em: 405 nm).

[1] = biological target: T2, TACE (crude extracted protein from membrane fraction of THP-1 cells) (Homo sapiens, UniProt P78536); assay: In vitro TACE inhibitory activity (fluorogenic peptide substrate); type: biochemical; conditions: crude TACE 10 μg/mL, substrate 20 μM, room temperature, at least 4 hours
T2 construct: The supernatant was collected, which was provided for use as a TACE crude extract; endogenous in cells; host or cells: THP-1 cells stimulated with LPS, silica and hydroxyurea; membrane fraction solubilised with 1% Triton X-100
Procedure: Test 1 (In Vitro TACE Inhibitory Activity)
(1) Crude Extraction of TACE from THP-1 Cell Membrane
To THP-1 cells (cell density: 2×10^6/mL) suspended in RPMI 1640 medium containing 1% FBS were added LPS (E. coli 055:B55, final concentration: 1 pg/mL), silica (0.014 μm, final concentration: 50 μg/mL) and hydroxyurea (final concenration: 2 mM), followed by cultivation at 37° C. for 16 hours under 5%-CO2 conditions. The resulting cells were then washed once with RPMI 1640 medium free of FBS. The cells were suspended in 3 times the pellet volume of Solution A (10 mM sodium phosphate (pH 7.4), 1 mM MgCl2, 30 mM NaCl, 0.02% NaN3, 5 μM PMSF (phenyl methyl sulfonyl fluoride)). The cells were ground by a Polytron homogenizer (5 sec×5 times, ice cooling for 1 to 2 minutes each time). The homogenate solution was stacked over 41% sucrose-Solution A, followed by centrifugation (150,000 g×1 hour). After centrifugation, the intermediate layer was collected and diluted with 4 volumes of Solution A, followed by centrifugation (150,000 g×20 min). A sufficient amount of a solubilizing solution (1%-Triton X-100-A solution) was added (protein concentration: 1 mg/mL) and the mixture was stirred (4° C.×1 hour). Stirring was followed by centrifugation (100,000 g×30 min, 4° C.). The supernatant was collected, which was provided for use as a TACE crude extract.
(2) Measurement of TACE Inhibitory Activity
TACE (crude extracted protein from membrane fraction of THP-1 cells, final concentration: 10 μg/mL), each of test compounds (DMSO final concentration: 1%) shown in Table 1 and an incubate solution (50 mM Tris-HCl (pH 7.4), 5 mM CaCl2, 0.002% NaN3, 0.002% Brij 35) was added to a 96-well black plate. After pre-incubation at room temperature for 30 minutes, a substrate (N-methylanthranilyl-LAQAVRSK(DNP)rr-NH2: product of PEPTIDE INSTITUTE, INC., final concentration: 20 μM) was added, followed by incubation at room temperature for at least 4 hours. The fluorescence intensity was measured using POLAR STAR (Ex: 340 nm, Em: 430 nm) and from it, TACE inhibitory activity (IC50 value) was calculated.

[2] = tested on: secretion of TNF-α, THP-1 cells; assay: Inhibitory activity against secretion of TNF-α in LPS-stimulated THP-1 cells (ELISA); type: cell-based; conditions: Homo sapiens, LPS 100 ng/mL, 37° C., 4 hours, ELISA of supernatant
Procedure: Test 3 (Measurement of Inhibitory Activity Against on of TNF-α)
To THP-1 cells (5×10^5 mL) suspended in RPMI 1640 medium containing 10% FBS were added LPS (100 ng/mL) and a medicament of various concentrations (DMSO final concentration: 0.1%), followed by incubation at 37° C. for 4 hours under 5%-CO2 conditions. The TNF-α in the cultured supernatant was analyzed by ELISA, whereby inhibitory activity (IC50) against secretion of TNF-α was calculated.

T2 sequence (P78536 215-824): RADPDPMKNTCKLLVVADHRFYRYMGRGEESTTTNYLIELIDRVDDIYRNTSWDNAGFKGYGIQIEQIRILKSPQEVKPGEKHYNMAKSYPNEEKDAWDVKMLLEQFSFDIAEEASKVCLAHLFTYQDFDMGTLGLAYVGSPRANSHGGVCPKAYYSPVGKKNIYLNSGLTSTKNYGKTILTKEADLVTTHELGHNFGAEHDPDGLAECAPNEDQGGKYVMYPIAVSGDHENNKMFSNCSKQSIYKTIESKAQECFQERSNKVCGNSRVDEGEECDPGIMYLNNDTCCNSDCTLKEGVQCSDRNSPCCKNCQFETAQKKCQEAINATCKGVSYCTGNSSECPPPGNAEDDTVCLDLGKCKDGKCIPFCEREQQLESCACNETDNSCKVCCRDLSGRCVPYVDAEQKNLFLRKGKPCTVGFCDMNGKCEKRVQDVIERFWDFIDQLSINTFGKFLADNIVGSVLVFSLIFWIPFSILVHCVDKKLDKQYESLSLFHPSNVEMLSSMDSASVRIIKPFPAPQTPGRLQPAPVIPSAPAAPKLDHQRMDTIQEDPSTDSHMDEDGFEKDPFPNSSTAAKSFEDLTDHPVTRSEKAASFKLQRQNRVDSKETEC

IC50 (MMP-1) [nM] | IC50 [1] [nM] | melting point [°C] | IC50 [2] [nM] | SMILES
> 10000 | 8.6 |  |  | COc1ccc(S(=O)(=O)N(C)c2cccc(/C(=C\C(=O)NO)c3ccccc3)c2)cc1 [Compound 62, Z-3-[3-[N-(4-Methoxybenzenesulfonyl)-N-methylamino]phenyl]-3-phenylpropenohydroxamic Acid]
> 10000 | 35 | 153 to 155 |  | CN(c1cccc(/C(=C\C(=O)NO)c2ccccc2)c1)S(=O)(=O)c1ccc([N+](=O)[O-])cc1 [Compound 68, Z-3-[3-[N-(4-Nitrobenzenesulfonyl)-N-methylamino]phenyl]-3-phenylpropenohydroxamic Acid]
> 10000 | 13 | 98 to 101 | 6400 | COc1ccc(S(=O)(=O)N(C)c2cccc(/C(=C\C(=O)NO)c3ccccc3)c2)cc1OC [Compound 75, Z-3-[3-[N-(3,4-Dimethoxybenzenesulfonyl)-N-methylamino]phenyl]-3-phenylpropenohydroxamic acid]
> 10000 | 29 |  |  | CN(c1cccc(/C(=C\C(=O)NO)c2ccccc2)c1)S(=O)(=O)c1cccc2cccnc12 [Compound 73, Z-3-[3-[N-(8-Quinolinesulfonyl)-N-methylamino]phenyl]-3-phenylpropenohydroxamic Acid]

Second part, the molecule before the results:

SMILES | IC50 (MMP-1) [nM] | IC50 [1] [nM] | melting point [°C] | IC50 [2] [nM]
COc1ccc(S(=O)(=O)N(c2cccc(/C(=C\C(=O)NO)c3ccccc3)c2)C(C)C)cc1 [Compound 63, Z-3-[3-[N-(4-Methoxybenzenesulfonyl)-N-isopropylamino]phenyl]-3-phenylpropenohydroxamic Acid] | > 10000 | 8.6 |  | 
COc1ccc(S(=O)(=O)N(C)c2cccc(/C(=C\C(=O)NO)c3cccnc3)c2)cc1 [Compound 89, E-3-[3-[N-(4-Methoxybenzenesulfonyl)-N-methylamino]phenyl]-3-(3-pyridyl)propenohydroxamic Acid] | > 10000 | 7 |  | 4100
COc1ccc(S(=O)(=O)N(c2cccc(/C(=C\C(=O)NO)c3cccnc3)c2)C(C)C)cc1 [Compound 88, E-3-[3-[N-(4-Methoxybenzenesulfonyl)-N-isopropylamino]phenyl]-3-(3-pyridyl)propenohydroxamic acid] | > 10000 | 6.4 | 158 to 160 | 2800
COc1ccc(S(=O)(=O)N(c2cccc(/C(=C\C(=O)NO)c3ccc[n+]([O-])c3)c2)C(C)C)cc1 [Compound 93, E-3-[3-[N-(4-methoxybenzenesulfonyl)-N-isopropylamino]phenyl]-3-(3-pyridyl N-oxide)propenohydroxamic Acid] | > 10000 | 13 |  | 5500
COc1ccc(S(=O)(=O)N(C)c2cccc(/C(=C\C(=O)NO)c3ccc[n+]([O-])c3)c2)cc1 [Compound 94, E-3-[3-[N-(4-Methoxybenzenesulfonyl)-N-methylamino]phenyl]-3-(3-pyridyl N-oxide)propenohydroxamic Acid] | > 10000 | 13 |  | 
